# Assay results published in patent EP1683799A1, “3-Amino-6-aryl(or 6-heteroaryl)-4-R²-thieno[2,3-b]pyridin-2-carboxylic acid amides, pharmaceutical compositions comprising the said and their use as inhibitors of TNFalpha release” (IBFB Pharma GmbH, priority 2005, dated 2006).
# pEC50: −log10 of the molar value.
# Tested on: TNFα-Freisetzung
# Assay: Inhibition of TNFα release after LPS stimulation of human whole blood (ELISA)
# Assay type: cell-based
# Conditions: human whole blood diluted 1:5 with RPMI 1640; LPS (Salmonella abortus equi) 1 µg/ml; 24 h at 37°C; TNFα in supernatant by ELISA; read-out: EC50 Hemmung der TNFα-Freisetzung
# Description: Methodenbeschreibung der Hemmung der TNFα Freisetzung nach LPS Stimulation von humanem Vollblut
# Die Stimulierung isolierter Leukozyten für die Freisetzung von Zytokinen kann auf verschiedenen Wegen erfolgen. Lipopolysaccharide (LPS) stellen einen Stimulus für die Untersuchung der Freisetzung von TNFα dar. LPS ist Bestandteil bakterieller Zellwände und wird beim Abtöten der Bakterien (durch Antibiotika oder das natürliche Immunsystem) freigesetzt. LPS stimuliert insbesondere die Aktivität phagozytierender Leukozyten (Gewebsmakrophagen, Granulozyten, Monozyten) und verursacht die Infiltration von Leukozyten vom peripheren Blut in das betroffene Gewebe. Ein Zytokin von besonderer Bedeutung für diese Mechanismen ist TNFα, das in großen Mengen durch die betroffenen Zellen sezemiert wird. Hauptquelle dabei sind Monozyten und Makrophagen. TNFα initiiert und prolongiert den Entzündungsprozess im Zusammenspiel mit anderen Mediatoren.
# Für die Untersuchung des Effektes auf die LPS-induzierte TNFα-Freisetzung wurde eine Methode verwendet, die von MARX et al. (Marx D, Tassabehji M, Heer S, Hüttenbrink KB, Szelenyi I (2002) Pulmonary Pharmacology & Therapeutics 15 7-15) beschrieben wurde. Die Methodenbeschreibung in verkürzter Darstellung: Humanes Blut verschiedener Spendern wird durch Zusatz von 10 mM Na-Citrat ungerinnbar gemacht und 1:5 mit RPMI 1640 Zellkulturmedium verdünnt. Die Verbindungen der allgemeinen Formel 1 sowie die Kontrollsubstanzen (z.B. Dexamethason) wurden den Blutproben in verschiedenen Konzentrationen hinzugefügt. 15 Minuten später wurden die Leukozyten durch Zusatz von Lipopolysacchariden (LPS) (aus Salmonella abortus equi) in einer Endkonzentration von 1 µg/ml stimuliert. Nach Inkubation der Testansätze für 24 Stunden bei 37°C. und unter 5% CO2 in wassergesättigter Luft, wurde das Blut zentrifugiert und die Konzentration an TNFα im zellfreien Überstand unter Verwendung eines käuflichen ELISA (BD Biosciences) nach Angaben des Herstellers exakt vermessen.
row,Structure (SMILES),pEC50
1,"NC(=O)c1sc2nc(-c3ccc4c(c3)OCCO4)cc(C(F)(F)F)c2c1N [3-Amino-6-(3,4-dioxoethylen-phenyl)-4-trifluormethyl-thieno[2,3-b]pyridin-2-carbonsäureamid]",> 9.00
2,"NC(=O)c1sc2nc(-c3cccs3)cc(C(F)(F)F)c2c1N [Beispiel 2, 3-Amino-6-(2-thienyl)-4-trifluormethyl-thieno[2,3-b]pyridin-2-carbonsäureamid]",> 9.00
3,"NC(=O)c1sc2nc(-c3ccc(Br)cc3)cc(C(F)(F)F)c2c1N [Beispiel 15, 3-Amino-6-(4-brom-phenyl)-4-trifluormethyl-thieno[2,3-b]pyridin-2-carbonsäureamid]",> 9.00
4,"CC(C)c1ccc(-c2cc(C(F)(F)F)c3c(N)c(C(N)=O)sc3n2)cc1 [Beispiel 10, 3-Amino-6-(4-isopropyl-phenyl)-4-trifluormethyl-thieno[2,3-b]pyridin-2-carbonsäureamid]",> 9.00
5,"NC(=O)c1sc2nc(-c3ccc4ccccc4c3)cc(C(F)(F)F)c2c1N [Beispiel 5, 3-Amino-6-(2-naphthyl)-4-trifluormethyl-thieno[2,3-b]pyridin-2-carbonsäureamid]",> 9.00
6,"CSc1ccc(-c2cc(C(F)(F)F)c3c(N)c(C(N)=O)sc3n2)cc1 [3-Amino-6-(4-methylthio-phenyl)-4-trifluormethyl-thieno[2,3-b]pyridin-2-carbonsäureamid]",> 9.00
7,"NC(=O)c1sc2nc(-c3ccccc3)cc(C(F)(F)F)c2c1N [Beispiel 6, 3-Amino-6-phenyl-4-trifluormethyl-thieno[2,3-b]pyridin-2-carbonsäureamid]",> 9.00
8,"NC(=O)c1sc2nc(-c3ccc4c(c3)OCO4)cc(C(F)(F)F)c2c1N [Beispiel 18, 3-Amino-6-(3,4-dioxomethylen-phenyl)-4-trifluormethyl-thieno[2,3-b]pyridin-2-carbonsäureamid]",> 9.00
9,"CCOc1ccc(-c2cc(C(F)(F)F)c3c(N)c(C(N)=O)sc3n2)cc1 [Beispiel 13, 3-Amino-6-(4-ethoxy-phenyl)-4-trifluormethyl-thieno[2,3-b]pyridin-2-carbonsäureamid]",> 9.00
10,"Cc1ccc(-c2cc(C(F)F)c3c(N)c(C(N)=O)sc3n2)cc1 [Beispiel 1, 3-Amino-4-difluormethyl-6-(4-methyl-phenyl)thieno[2,3-b]pyridin-2-carbonsäureamid]",> 9.00
11,"NC(=O)c1sc2nc(-c3ccc(Cl)cc3)cc(C(F)(F)F)c2c1N [Beispiel 14, 3-Amino-6-(4-chlor-phenyl)-4-trifluormethyl-thieno[2,3-b]pyridin-2-carbonsäureamid]",> 9.00
12,"Cc1ccc(-c2cc(C(F)(F)F)c3c(N)c(C(N)=O)sc3n2)cc1C [Beispiel 16, 3-Amino-6-(3,4-dimethyl-phenyl)-4-trifluormethyl-thieno[2,3-b]pyridin-2-carbonsäureamid]",> 9.00
13,"CCc1ccc(-c2cc(C(F)(F)F)c3c(N)c(C(N)=O)sc3n2)cc1 [Beispiel 8, 3-Amino-6-(4-ethyl-phenyl)-4-trifluormethyl-thieno[2,3-b]pyridin-2-carbonsäureamid]",> 9.00
14,"NC(=O)c1sc2nc(-c3ccc(F)cc3)cc(C(F)(F)F)c2c1N [Beispiel 22, 3-Amino-6-(4-fluor-phenyl)-4-trifluormethyl-thieno[2,3-b]pyridin-2-carbonsäureamid]",> 9.00
15,"Cc1ccc(-c2cc(C(F)(F)F)c3c(N)c(C(N)=O)sc3n2)cc1 [Beispiel 7, 3-Amino-6-(4-methyl-phenyl)-4-trifluormethyl-thieno[2,3-b]pyridin-2-carbonsäureamid]",> 9.00
16,"COc1ccc(-c2cc(C(F)(F)F)c3c(N)c(C(N)=O)sc3n2)cc1 [Beispiel 12, 3-Amino-6-(4-methoxy-phenyl)-4-trifluormethyl-thieno[2,3-b]pyridin-2-carbonsäureamid]",> 9.00
17,"CCCc1ccc(-c2cc(C(F)(F)F)c3c(N)c(C(N)=O)sc3n2)cc1 [Beispiel 9, 3-Amino-6-(4-propyl-phenyl)-4-trifluormethyl-thieno[2,3-b]pyridin-2-carbonsäureamid]",> 9.00
